In ChEMBL document CHEMBL1139146, “An analogue of AICAR with dual inhibitory activity against WNV and HCV NTPase/helicase: synthesis and in vitro screening of 4-carbamoyl-5-(4,6-diamino-2,5-dihydro-1,3,5-triazin-2-yl)imidazole-1-beta-D-ribofuranoside” (Bioorg Med Chem Lett, 2007):
Activity calls are given as the source filed them. The rule behind the calls is not given here.

How the values were obtained:
[1] = system: Japanese encephalitis virus; experiment: Inhibition of helicase activity of Japanese encephalitis virus NTPase/helicase expressed in Escherichia coli using RNA substrate
[2] = system: Hepacivirus hominis; experiment: Inhibition of helicase activity of Hepatitis C virus NTPase/helicase expressed in Escherichia coli using RNA substrate
[3] = Inhibition of helicase activity of West Nile virus NTPase/helicase expressed in Vero E6 cells using DNA substrate; assay type: cell-based
[4] = Inhibition of helicase activity of Dengue virus NTPase/helicase expressed in Escherichia coli using DNA substrate
[5] = system: Vero; experiment: Inhibition of helicase activity of West Nile virus NTPase/helicase expressed in Vero E6 cells using RNA substrate; assay type: cell-based
[6] = system: Dengue virus; experiment: Inhibition of helicase activity of Dengue virus NTPase/helicase expressed in Escherichia coli using RNA substrate
[7] = Inhibition of helicase activity of Japanese encephalitis virus NTPase/helicase expressed in Escherichia coli using DNA substrate
[8] = Inhibition of helicase activity of Hepatitis C virus NTPase/helicase expressed in Escherichia coli using DNA substrate; set-up: species or system Hepacivirus hominis

## NC(=O)c1ncn([C@@H]2O[C@H](CO)[C@@H](O)[C@H]2O)c1C1N=C(N)NC(N)=N1
[1]
  Activity: inactive
[2]
  Activity: inactive
[3]
  IC50: 23 µM
[4]
  IC50: > 430 µM
[5]
  Activity: inactive
[6]
  Activity: inactive
[7]
  IC50: > 500 µM
[8]
  IC50: 37 µM
